{"source": "patent EP0048614B1", "about": "“1-N-acylated and 1-N-alkylated derivatives of 4-0-substituted -2-deoxystreptamine aminoglycosides” (ELI LILLY AND COMPANY, priority 1980, dated 1982)", "key": {"[1]": {"system": "Proteus rettgeri PR7", "assay": "MIC, standard agar dilution test", "type": "cell-based", "details": "Providencia rettgeri, PR7, read-out: Minimum Inhibitory Concentration, Proteus rettgeri PR7", "from_the_text": "(§1) The antibacterial activity of the deprotected compounds of this invention is illustrated by the following in vitro and in vivo test data obtained with representative compounds. In Table I, the minimum inhibitory concentration (MIC) for representative compounds against a wide range of gram-positive and gram-negative bacteria is presented. The MIC values were obtained by the standard agar dilution test."}, "[2]": {"system": "Proteus morganii PR15", "assay": "MIC, standard agar dilution test", "type": "cell-based", "details": "Morganella morganii, PR15, read-out: Minimum Inhibitory Concentration", "from_the_text": "as §1"}, "[3]": {"system": "Escherichia coli EC14", "assay": "MIC, standard agar dilution test", "type": "cell-based", "details": "Escherichia coli, EC14, read-out: Minimum Inhibitory Concentration", "from_the_text": "as §1"}, "[4]": {"system": "Streptococcus group D 9960", "assay": "MIC, standard agar dilution test", "type": "cell-based", "details": "D9960, read-out: Minimum Inhibitory Concentration", "from_the_text": "as §1"}, "[5]": {"system": "Citrobacter freundii CF17", "assay": "MIC, standard agar dilution test", "type": "cell-based", "details": "Citrobacter freundii, CF17, read-out: Minimum Inhibitory Concentration", "from_the_text": "as §1"}, "[6]": {"system": "Proteus rettgeri C24", "assay": "MIC, standard agar dilution test", "type": "cell-based", "details": "Providencia rettgeri; Proteus rettgeri C24; agar dilution; read-out: Minimum Inhibitory Concentration", "from_the_text": "as §1"}, "[7]": {"system": "Salmonella heidelberg X514", "assay": "MIC, standard agar dilution test", "type": "cell-based", "details": "Salmonella enterica, X514, read-out: Minimum Inhibitory Concentration", "from_the_text": "as §1"}, "[8]": {"system": "Hemophilus influenzae C.L.", "assay": "MIC, standard agar dilution test", "type": "cell-based", "details": "Haemophilus influenzae, Hemophilus influenzae C.L., read-out: Minimum Inhibitory Concentration", "from_the_text": "as §1"}, "[9]": {"system": "Pseudomonas aeruginosa X528", "assay": "MIC, standard agar dilution test", "type": "cell-based", "details": "Pseudomonas aeruginosa, X528, read-out: Minimum Inhibitory Concentration", "from_the_text": "as §1"}, "[10]": {"system": "Streptococcus pyogenes C203", "assay": "MIC, standard agar dilution test", "type": "cell-based", "details": "Streptococcus pyogenes, C203, read-out: Minimum Inhibitory Concentration", "from_the_text": "as §1"}, "[11]": {"system": "Serratia marcescens SE3", "assay": "MIC, standard agar dilution test", "type": "cell-based", "details": "Serratia marcescens, SE3, read-out: Minimum Inhibitory Concentration", "from_the_text": "as §1"}, "[12]": {"system": "Staphylococcus aureus S13E", "assay": "MIC, standard agar dilution test", "type": "cell-based", "details": "read-out: Minimum Inhibitory Concentration", "from_the_text": "as §1"}, "[13]": {"system": "Pseudomonas aeruginosa X239", "assay": "MIC, standard agar dilution test", "type": "cell-based", "details": "Pseudomonas aeruginosa, X239, read-out: Minimum Inhibitory Concentration", "from_the_text": "as §1"}, "[14]": {"system": "Streptococcus group D X66", "assay": "MIC, standard agar dilution test", "type": "cell-based", "details": "DX66, read-out: Minimum Inhibitory Concentration", "from_the_text": "as §1"}, "[15]": {"system": "Hemophilus influenzae 76", "assay": "MIC, standard agar dilution test", "type": "cell-based", "details": "Haemophilus influenzae, Hemophilus influenzae 76, read-out: Minimum Inhibitory Concentration", "from_the_text": "as §1"}, "[16]": {"system": "Staphylococcus aureus V41", "assay": "MIC, standard agar dilution test", "type": "cell-based", "details": "Staphylococcus aureus, V41, read-out: Minimum Inhibitory Concentration", "from_the_text": "as §1"}, "[17]": {"system": "Escherichia coli TEM", "assay": "MIC, standard agar dilution test", "type": "cell-based", "details": "read-out: Minimum Inhibitory Concentration", "from_the_text": "as §1"}, "[18]": {"system": "Enterobacter cloacae EB5", "assay": "MIC, standard agar dilution test", "type": "cell-based", "details": "Enterobacter cloacae, EB5, read-out: Minimum Inhibitory Concentration", "from_the_text": "as §1"}, "[19]": {"system": "Streptococcus pneumoniae Park I", "assay": "MIC, standard agar dilution test", "type": "cell-based", "details": "Streptococcus pneumoniae, read-out: Minimum Inhibitory Concentration", "from_the_text": "as §1"}, "[20]": {"system": "Enterobacter aerogenes EB17", "assay": "MIC, standard agar dilution test", "type": "cell-based", "details": "Klebsiella aerogenes; Enterobacter aerogenes EB17; agar dilution; read-out: Minimum Inhibitory Concentration", "from_the_text": "as §1"}, "[21]": {"system": "Shigella sonnei N9", "assay": "MIC, standard agar dilution test", "type": "cell-based", "details": "read-out: Minimum Inhibitory Concentration", "from_the_text": "as §1"}, "[22]": {"system": "Serratia marcescens X99", "assay": "MIC, standard agar dilution test", "type": "cell-based", "details": "Serratia marcescens X99, read-out: Minimum Inhibitory Concentration", "from_the_text": "as §1"}, "[23]": {"system": "Pseudomonas aeruginosa Ps18", "assay": "MIC, standard agar dilution test", "type": "cell-based", "details": "Pseudomonas aeruginosa, PS18, read-out: Minimum Inhibitory Concentration", "from_the_text": "as §1"}, "[24]": {"system": "Klebsiella pneumoniae X26", "assay": "MIC, standard agar dilution test", "type": "cell-based", "details": "Klebsiella pneumoniae X26; agar dilution; read-out: Minimum Inhibitory Concentration", "from_the_text": "as §1"}, "[25]": {"system": "Enterobacter aerogenes C32", "assay": "MIC, standard agar dilution test", "type": "cell-based", "details": "Klebsiella aerogenes; Enterobacter aerogenes C32; agar dilution; read-out: Minimum Inhibitory Concentration", "from_the_text": "as §1"}, "[26]": {"system": "Klebsiella pneumoniae KAE", "assay": "MIC, standard agar dilution test", "type": "cell-based", "details": "Klebsiella pneumoniae, read-out: Minimum Inhibitory Concentration", "from_the_text": "as §1"}, "[27]": {"system": "Staphylococcus aureus X400", "assay": "MIC, standard agar dilution test", "type": "cell-based", "details": "Staphylococcus aureus, X400, read-out: Minimum Inhibitory Concentration, Staphylococcus aureus X400", "from_the_text": "as §1"}, "[28]": {"system": "Enterobacter aerogenes X68", "assay": "MIC, standard agar dilution test", "type": "cell-based", "details": "Klebsiella aerogenes, Enterobacter aerogenes X68, read-out: Minimum Inhibitory Concentration", "from_the_text": "as §1"}, "[29]": {"system": "Proteus inconstans PR33", "assay": "MIC, standard agar dilution test", "type": "cell-based", "details": "Providencia alcalifaciens, PR33, read-out: Minimum Inhibitory Concentration", "from_the_text": "as §1"}, "[30]": {"system": "Enterobacter cloacae 265A", "assay": "MIC, standard agar dilution test", "type": "cell-based", "details": "Enterobacter cloacae, 265A, read-out: Minimum Inhibitory Concentration", "from_the_text": "as §1"}, "[31]": {"system": "Salmonella typhimurium 1335", "assay": "MIC, standard agar dilution test", "type": "cell-based", "details": "Salmonella enterica, TYPHIMURIUM, read-out: Minimum Inhibitory Concentration", "from_the_text": "as §1"}, "[32]": {"system": "Escherichia coli N10", "assay": "MIC, standard agar dilution test", "type": "cell-based", "details": "Escherichia coli, N10, read-out: Minimum Inhibitory Concentration", "from_the_text": "as §1"}, "[33]": {"system": "Staphylococcus aureus X1.1", "assay": "MIC, standard agar dilution test", "type": "cell-based", "details": "Staphylococcus aureus X1.1; agar dilution; read-out: Minimum Inhibitory Concentration", "from_the_text": "as §1"}, "[34]": {"system": "Bordetella bronchiseptica 16", "assay": "MIC, standard agar dilution test", "type": "cell-based", "details": "Bordetella bronchiseptica, 16, read-out: Minimum Inhibitory Concentration", "from_the_text": "as §1"}, "[35]": {"system": "Staphylococcus epidermidis EPI2", "assay": "MIC, standard agar dilution test", "type": "cell-based", "details": "Staphylococcus epidermidis EPI2; agar dilution; read-out: Minimum Inhibitory Concentration", "from_the_text": "as §1"}, "[36]": {"system": "Staphylococcus epidermidis EPI1", "assay": "MIC, standard agar dilution test", "type": "cell-based", "details": "Staphylococcus epidermidis, EPI1; read-out: Minimum Inhibitory Concentration", "from_the_text": "as §1"}, "[37]": {"system": "Escherichia coli X563", "assay": "Standard disc-plate method, zone of inhibition against apramycin-resistant strain", "type": "cell-based", "details": "Escherichia coli, X563, read-out: Zone of Inhibition (diameter in mm), 15 mcg/disc; apramycin-resistant E. coli X563; one value for each of two test runs per compound", "from_the_text": "Table III, shown below, illustrates the in vitro activity of 1-N-(S-y-amino-a-hydroxybutyryl)apramycin, 1-N-(RS-y-amino-a-hydroxybutyryl)apramycin, and 1-N-(S-y-amino-a-hydroxybutyryl)nebramine against an apramycin resistant strain of E. coli. The results below were obtained using the standard disc-plate method. The numerical values are the diameters in millimeters of the zones of inhibition observed against this bacterium. Compounds substituted with the y-amino-a-hydroxybutyryl and analogous side chains are useful in treating infections caused by apramycin resistant bacteria such as the one above.\nThe test organism (E. coli X563) used in the experiments summarized in Table III is resistant to apramycin due to a 3-N-acetyltransferase which enzymatically inactivates apramycin."}, "[38]": {"system": "Staphylococcus aureus 3055", "assay": "Subcutaneous therapy of experimental bacterial infection in mice (ED50)", "type": "in vivo", "details": "Staphylococcus aureus, 3055, sc; mg/kg × 2 subcutaneous doses at 1 and 5 hours post infection; mice challenged with 1,794 LD50's; read-out: Effective Dose (ED50)", "experimental": "Table II illustrates the effective dose (ED50, the effective dose to protect 50 percent of the test animals) for representative compounds of this invention against an experimental bacterial infection in mice.\nThe ED50 values were determined as described by W. E. Wick et al., Journal of Bacteriology, 81 [No. 2], 233-235 (1961)."}}, "data": [{"smiles": "CNC1C(OC2OC(CO)C(N)C(O)C2O)OC2CC(N)C(OC3C(N)CC(NC(=O)CN)C(O)C3O)OC2C1O", "note": "(centres unmarked) [Test Compound 3, 1-N-glycylapramycin]", "values": [{"measurement": "MIC", "setting": "[1]", "value": "> 128", "unit": "µg/mL"}, {"measurement": "MIC", "setting": "[2]", "value": "> 128", "unit": "µg/mL"}, {"measurement": "MIC", "setting": "[3]", "value": 128, "unit": "µg/mL"}, {"measurement": "MIC", "setting": "[4]", "value": "> 128", "unit": "µg/mL"}, {"measurement": "MIC", "setting": "[5]", "value": "> 128", "unit": "µg/mL"}, {"measurement": "MIC", "setting": "[6]", "value": 64, "unit": "µg/mL"}, {"measurement": "MIC", "setting": "[7]", "value": 128, "unit": "µg/mL"}, {"measurement": "MIC", "setting": "[8]", "value": 64, "unit": "µg/mL"}, {"measurement": "MIC", "setting": "[9]", "value": "> 128", "unit": "µg/mL"}, {"measurement": "MIC", "setting": "[10]", "value": "> 128", "unit": "µg/mL"}, {"measurement": "MIC", "setting": "[11]", "value": 128, "unit": "µg/mL"}, {"measurement": "MIC", "setting": "[12]", "value": 64, "unit": "µg/mL"}, {"measurement": "MIC", "setting": "[13]", "value": "> 128", "unit": "µg/mL"}, {"measurement": "MIC", "setting": "[14]", "value": "> 128", "unit": "µg/mL"}, {"measurement": "MIC", "setting": "[15]", "value": 64, "unit": "µg/mL"}, {"measurement": "MIC", "setting": "[16]", "value": 128, "unit": "µg/mL"}, {"measurement": "MIC", "setting": "[17]", "value": 32, "unit": "µg/mL"}, {"measurement": "MIC", "setting": "[18]", "value": 128, "unit": "µg/mL"}, {"measurement": "MIC", "setting": "[19]", "value": "> 128", "unit": "µg/mL"}, {"measurement": "MIC", "setting": "[20]", "value": 64, "unit": "µg/mL"}, {"measurement": "MIC", "setting": "[21]", "value": 128, "unit": "µg/mL"}, {"measurement": "MIC", "setting": "[22]", "value": 64, "unit": "µg/mL"}, {"measurement": "MIC", "setting": "[23]", "value": "> 128", "unit": "µg/mL"}, {"measurement": "MIC", "setting": "[24]", "value": 64, "unit": "µg/mL"}, {"measurement": "MIC", "setting": "[25]", "value": 64, "unit": "µg/mL"}, {"measurement": "MIC", "setting": "[26]", "value": "> 128", "unit": "µg/mL"}, {"measurement": "MIC", "setting": "[27]", "value": "> 128", "unit": "µg/mL"}, {"measurement": "MIC", "setting": "[28]", "value": 64, "unit": "µg/mL"}, {"measurement": "MIC", "setting": "[29]", "value": 128, "unit": "µg/mL"}, {"measurement": "MIC", "setting": "[30]", "value": 128, "unit": "µg/mL"}, {"measurement": "MIC", "setting": "[31]", "value": 128, "unit": "µg/mL"}, {"measurement": "MIC", "setting": "[32]", "value": "> 128", "unit": "µg/mL"}, {"measurement": "MIC", "setting": "[33]", "value": 64, "unit": "µg/mL"}, {"measurement": "MIC", "setting": "[34]", "value": "> 128", "unit": "µg/mL"}, {"measurement": "MIC", "setting": "[35]", "value": 64, "unit": "µg/mL"}, {"measurement": "MIC", "setting": "[36]", "value": 64, "unit": "µg/mL"}, {"measurement": "zone of inhibition at 15 µg/disc", "setting": "[37]", "value": "< 8", "unit": "mm"}, {"measurement": "ED50", "setting": "[38]", "value": 59.5, "unit": "mg/kg"}]}]}
